We go through four compounds from patent publication US9303020B2, “Compounds for the treatment of hepatitis C” (Bristol-Myers Squibb Company, priority 2012, dated 2016).

Series [1] relates to genotype 1b HCV replicon in Huh-7 cells. The series is described as follows: HCV replicon luciferase assay. The class given is cell-based, HCV genotype 1b (human hepatocyte derived cell line Huh-7). Particulars: Hepatitis C virus, Huh-7, 72 h, Renilla luciferase, 3 days incubation. As to the method:
The cell lines used to evaluate compounds consist of a human hepatocyte derived cell line (Huh-7) that constitutively expresses a genotype 1b HCV replicon containing a Renilla luciferase reporter gene. These cells were maintained in Dulbecco's modified Eagle medium (DMEM) containing 10% FBS, 100 U/mL penicillin/streptomycin and 1.0 mg/mL G418.
To evaluate compound efficacy, titrated compounds were transferred to sterile 384-well tissue culture treated plates, and the plates were seeded with HCV replicon cells (50 μL at a density of 2.4×10^3 cells/well) in DMEM containing 4% FBS (final DMSO concentration at 0.5%). After 3 days incubation at 37° C., cells were analyzed for Renilla Luciferase activity using the EnduRen substrate (Promega cat #E6485) according to the manufacturer's directions. Briefly, the EnduRen substrate was diluted in DMEM and then added to the plates to a final concentration of 7.5 μM. The plates were incubated for at least 1 h at 37° C. then read on a Viewlux Imager (PerkinElmer) using a luminescence program. The 50% effective concentration (EC50) was calculated using the four-parameter logistic formula noted above.
Background: Replicon systems follow genome replication, usually without infectious particles.

For series [2], the target named is T1, NS5B protein of HCV, genotype 1b (Hepatitis C virus genotype 1b, UniProt Q9WMX2).
T1 construct: The protein was expressed with an 18 amino acid C-terminal truncation to enhance the solubility; made in house; host or cells: E. coli BL21(DE3)
The experiment in a line: HCV NS5B RdRp enzyme assay. The class given is biochemical. Particulars: 7 nM NS5B enzyme, 4 hours at 30° C. On the procedure:
The cDNA encoding the NS5B protein of HCV, genotype 1b, was cloned into the pET21a expression vector. The protein was expressed with an 18 amino acid C-terminal truncation to enhance the solubility. The E. coli competent cell line BL21(DE3) was used for expression of the protein. Cultures were grown at 37° C. for ˜4 hours until the cultures reached an optical density of 2.0 at 600 nm. The cultures were cooled to 20° C. and induced with 1 mM IPTG. Fresh ampicillin was added to a final concentration of 50 μg/mL and the cells were grown overnight at 20° C.
Cell pellets (3 L) were lysed for purification to yield 15-24 mgs of purified NS5B. […]
Reactions were allowed to proceed for 4 hours at 30° C. and terminated by the addition of 50 mM EDTA (10 μL). After incubating for at least 15 minutes, plates were read on an Amersham LEADseeker multimodality imaging system.
IC50 values for compounds were determined using ten different [I]. IC50 values were calculated from the inhibition using the four-parameter logistic formula y=A+((B−A)/(1+((C/x)^D))), where A and B denote minimal and maximal % inhibition, respectively, C is the IC50, D is hill slope and x represents compound concentration.

In another series the test system is HCV. Particulars: extended dosing of the combination regimens with interferon and ribavirin; cited from earlier work.

T1 sequence (Q9WMX2 2420-2992): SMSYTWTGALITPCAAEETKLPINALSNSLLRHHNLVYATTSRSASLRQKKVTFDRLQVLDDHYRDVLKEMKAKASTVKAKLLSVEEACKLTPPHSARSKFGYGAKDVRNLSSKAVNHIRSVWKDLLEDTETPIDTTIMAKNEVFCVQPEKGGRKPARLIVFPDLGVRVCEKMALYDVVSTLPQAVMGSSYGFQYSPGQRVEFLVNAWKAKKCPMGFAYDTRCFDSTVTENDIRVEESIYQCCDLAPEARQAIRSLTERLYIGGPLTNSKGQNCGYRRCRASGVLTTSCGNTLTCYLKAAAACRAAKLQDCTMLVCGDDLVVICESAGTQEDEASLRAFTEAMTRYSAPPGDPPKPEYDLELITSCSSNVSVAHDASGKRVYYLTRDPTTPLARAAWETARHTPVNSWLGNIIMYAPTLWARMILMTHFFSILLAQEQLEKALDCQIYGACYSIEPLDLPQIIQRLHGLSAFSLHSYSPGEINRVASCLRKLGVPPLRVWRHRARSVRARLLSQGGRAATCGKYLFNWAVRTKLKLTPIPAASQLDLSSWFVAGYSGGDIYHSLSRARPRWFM

Broadly, the EC50 is the concentration giving half of the maximal effect. Low readings indicate a more potent agent, high ones a less potent agent. Regarding `CCNc1cc2oc(-c3ccc(F)cc3)c(-c3ncc[nH]3)c2cc1-c1ccc(OC)c(C(=O)NC2(c3ncccn3)CC2)c1` [Example 2, 5-(6-(ethylamino)-2-(4-fluorophenyl)-3-(1H-imidazol-2-yl)benzofuran-5-yl)-2-methoxy-N-(1-(pyrimidin-2-yl)cyclopropyl)benzamide], in series [1], the EC50 worked out at 7.2 nM.
What is called IC50 is the midpoint of a concentration-inhibition curve. High values mean weaker potency in that assay, low ones greater potency in that assay. For the compound `COc1cc(C)c(-c2ccc3oc(-c4ccc(F)cc4)c(-c4ncc[nH]4)c3c2F)cc1C(=O)NC1(c2ncccn2)CC1` [Example 1, 5-(4-fluoro-2-(4-fluorophenyl)-3-(1H-imidazol-2-yl)benzofuran-5-yl)-2-methoxy-4-methyl-N-(1-(pyrimidin-2-yl)cyclopropyl)benzamide], the IC50 in series [2] amounted to 30 nM. Also, the EC50 in series [1] was 30 nM.
Turning to `CNC(=O)c1c(-c2ccc(F)cc2)oc2cc(N(CCO)S(C)(=O)=O)c(C3CC3)cc12` [HCV-796], in the series with HCV, the “toxicity during extended dosing” value is reported as “hepatic toxicity”.
Turning to `CCN(c1cc2oc(-c3ccc(F)cc3)c(-c3ncc[nH]3)c2cc1-c1ccc(OC)c(C(=O)NC2(c3ncccn3)CC2)c1)S(C)(=O)=O` [Example 3, 5-(6-(N-ethylmethylsulfonamido)-2-(4-fluorophenyl)-3-(1H-imidazol-2-yl)benzofuran-5-yl)-2-methoxy-N-(1-(pyrimidin-2-yl)cyclopropyl)benzamide], the EC50 in series [1] stood at 9 nM.
